Data on 1 compound can be found in US20140328940A1, “MODULATION OF AXON DEGENERATION” (Genentech, Inc., priority 2009, published 2014).

The nature of data set [1]: vincristine challenge of cortical neurons, viability assay. In kind it is cell-based. The settings on record: rat, primary E18 cortical neurons; 12 hour vincristine (300 nM); read-out: % Viability (normalized). As to the method: (§1) Cortical neurons were isolated using the following procedure. Rat E18 cortices devoid of meninges were dissected into ice-cold neurobasal media (Invitrogen). Cortices were dissociated in a final concentration of 0.1% trypsin/PBS (Worthington) for 30 minutes at 37° C. A final concentration of 0.1% RNase (Roche) was added to the tube and tissue was incubated at room temperature for 1 minute. Tissue was washed once with warm neurobasal media and the tissue was allowed to settle in the tube before 1 mL of neurobasal media containing 2% B27 supplement (Invitrogen) was added. Tissue was dissociated by trituration with a P1000 pipet (Rainin). The cells were counted and, for some experiments, transfected with siRNAs using a Biosystem 96-well nucleofector (Amaxa).
(§2) Cells were plated in 6- or 8-well chambers or 96-well poly-D-lysine coated dishes (BD Biosciences) at plated cell densities of 2×10^6 cells/well, 1.25-2×10^5 cells/well, or 1×10^4 cells/well, respectively, for siRNA experiments (densities that allow for some cell death normally associated with the electroporation process). […] Gene silencing was assayed 3-4 days after plating by quantitative reverse transcriptase polymerase chain reaction (qRT-PCR). […] Each reaction containing 10 ng of RNA was run in triplicate using the Quantifect SYBR Green RT-PCR kit (Qiagen) with DLK-, JNK1-, JNK2-, or JNK3-specific primers. […]

A short description of data set [2]: toxin-induced degeneration of sympathetic neurons (MTT assay). The data set is classed as cell-based. The settings on record: Sprague-Dawley, rat, primary sympathetic neurons from cervical ganglia, 24 hour vincristine, read-out: % viability (normalized). As to the method: Sympathetic cervical ganglia were dissected from postnatal day 1 Sprague-Dawley rats (Charles River Labs) and collected in a dish containing Ultraculture media (Lonza) with 5% fetal bovine serum (Invitrogen). Ganglia were washed twice with serum-free Ultraculture media, and a final concentration of 0.1% trypsin (Worthington) was added and incubated with the tissue at 37° C. for 30 minutes. One percent DNase (Roche) solution in PBS was added to the ganglia and incubated at room temperature for 1-2 minutes. Ganglia were washed with Ultraculture and allowed to settle to the bottom of the tube. All wash media were removed and 1 mL plating media containing Ultraculture, 5% rat serum, 1% penicillin-streptomycin, 1% glutamax, 7 μM cytosine arabinoside (Sigma), and 50 ng/mL nerve growth factor (2.5S, Cedarlane Laboratory) was added to the tube. Ganglia were dissociated by trituration using a pipet (Rainin). The cell slurry was filtered over a […] cell strainer (Falcon) and cell number was counted. Sympathetic neurons were plated at a density of 5000-7500 cells/well (96-well dish), 200,000 cells/well (6-well plate), or 100,000 cells/well (8-well chamber slide) and grown for 4-5 days in 5% CO2 at 37° C. Every other day neurons were fed with fresh plating media containing 5-10 ng/mL NGF.
NGF withdrawal assays were performed as described in Example 14A. […]

Another data set has as its system cortical neurons. Nature of the data set: vincristine challenge of cortical neurons, LDH assay. In kind it is cell-based, rat. The settings on record: 20 hour vincristine (300 nM). As for the experimental part: as §1, §2

Regarding `CC[C@]1(O)C[C@H]2CN(CCc3c([nH]c4ccccc34)[C@@](C(=O)OC)(c3cc4c(cc3OC)N(C=O)[C@H]3[C@@](O)(C(=O)OC)[C@H](OC(C)=O)[C@]5(CC)C=CCN6CC[C@]43[C@@H]65)C2)C1` [vincristine], the viability at 12 h, 0.3 µM in data set [1] was found to be 77%. In addition, the viability at 24 h in data set [2] was 28%. Also, the “% cell death (normalized)” value in the data set with cortical neurons is given as 100%.
